Laboratory results reported in patent US20230002357A1, “7-PYRIMIDINE-2-YL-OXY-INDAZOLE DERIVATIVES AND THEIR USE AS HERBICIDES” (SYNGENTA CROP PROTECTION AG, priority 2019, published 2023).

Tests used:
Type in all cases: in vivo
Settings in all cases: 250 g/ha, evaluated after 13 days
[1] = tested on: IPOHE; test: Pre-emergence Test, glasshouse, IPOHE
In short: (§1)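 Sow seeds in standard soil; grow under glasshouse control (24/16 °C day/night, 14 h light, 65% humidity). Spray at day 1 (pre-emergence) or day 8 (post-emergence) with an aqueous spray of compound formulated in acetone/water 50:50 with 0.5% Tween 20, normally 250 g/ha. Evaluate percentage damage at 13 days, scored 1-5.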

[2] = tested on: ABUTH; test: Post-emergence Test, glasshouse, ABUTH
In short: as §1

[3] = tested on: Amaranthus retoflexus (AMARE); test: Pre-emergence Test, glasshouse, AMARE
In short: as §1

[4] = tested on: Echinochloa crus-galli (ECHCG); test: Pre-emergence Test, glasshouse, ECHCG
In short: as §1

[5] = tested on: ABUTH; test: Pre-emergence Test, glasshouse, ABUTH
In short: as §1

[6] = tested on: Setaria faberi (SETFA); test: Pre-emergence Test, glasshouse, SETFA
In short: as §1

[7] = tested on: Echinochloa crus-galli (ECHCG); test: Post-emergence Test, glasshouse, ECHCG
In short: as §1

[8] = tested on: IPOHE; test: Post-emergence Test, glasshouse, IPOHE
In short: as §1

[9] = tested on: Amaranthus retoflexus (AMARE); test: Post-emergence Test, glasshouse, AMARE
In short: as §1

[10] = tested on: Setaria faberi (SETFA); test: Post-emergence Test, glasshouse, SETFA
In short: as §1

Compound	percentage damage caused to the plant, five-point scale, IPOHE [1]	percentage damage caused to the plant, five-point scale, ABUTH [2]	percentage damage caused to the plant, five-point scale, AMARE [3]	percentage damage caused to the plant, five-point scale, ECHCG [4]	percentage damage caused to the plant, five-point scale, ABUTH [5]	percentage damage caused to the plant, five-point scale, SETFA [6]	percentage damage caused to the plant, five-point scale, ECHCG [7]	percentage damage caused to the plant, five-point scale, IPOHE [8]	percentage damage caused to the plant, five-point scale, AMARE [9]	percentage damage caused to the plant, five-point scale, SETFA [10]
COCCCn1nc(Cl)c2cccc(Oc3ncc(Cl)cn3)c21 [Compound 1.060]	2 (2=21-40%)	3 (3=41-60%)	4 (4=61-80%)	4 (4=61-80%)	4 (4=61-80%)	4 (4=61-80%)	4 (4=61-80%)	2 (2=21-40%)	3 (3=41-60%)	3 (3=41-60%)
FC(F)(F)CCCn1ncc2c(Cl)ccc(Oc3ncc(Cl)cn3)c21 [Compound 1.013, 4-chloro-7-(5-chloropyrimidin-2-yl)oxy-1-(4,4,4-trifluorobutyl)indazole]	1 (1=0-20%)	5 (5=81-100%)	5 (5=81-100%)	5 (5=81-100%)	2 (2=21-40%)	5 (5=81-100%)	5 (5=81-100%)	2 (2=21-40%)	5 (5=81-100%)	5 (5=81-100%)
FCCn1nc(Cl)c2cccc(Oc3ncc(Cl)cn3)c21 [Compound 1.062]	1 (1=0-20%)	2 (2=21-40%)	4 (4=61-80%)	2 (2=21-40%)	1 (1=0-20%)	4 (4=61-80%)	1 (1=0-20%)	1 (1=0-20%)	3 (3=41-60%)	1 (1=0-20%)
Fc1cc(Cl)cnc1Oc1cccc2ccn(CCCC(F)(F)F)c12 [Compound 1.004]	1 (1=0-20%)	1 (1=0-20%)	1 (1=0-20%)	1 (1=0-20%)	1 (1=0-20%)	2 (2=21-40%)	1 (1=0-20%)	2 (2=21-40%)	3 (3=41-60%)	1 (1=0-20%)
CCCn1nc(Cl)c2cccc(Oc3ncc(Cl)cn3)c21 [Compound 1.061]	1 (1=0-20%)	2 (2=21-40%)	3 (3=41-60%)	4 (4=61-80%)	1 (1=0-20%)	5 (5=81-100%)	2 (2=21-40%)	2 (2=21-40%)	4 (4=61-80%)	2 (2=21-40%)
FC(F)(F)CCCn1nnc2cc(Cl)cc(Oc3ncc(Cl)cn3)c21 [Compound 1.050]	1 (1=0-20%)	2 (2=21-40%)	1 (1=0-20%)	1 (1=0-20%)	1 (1=0-20%)	1 (1=0-20%)	1 (1=0-20%)	3 (3=41-60%)	5 (5=81-100%)	1 (1=0-20%)
C=CCCn1nc(Cl)c2cccc(Oc3ncc(Cl)cn3)c21 [Compound 1.054]	1 (1=0-20%)	4 (4=61-80%)	4 (4=61-80%)	4 (4=61-80%)	1 (1=0-20%)	5 (5=81-100%)	3 (3=41-60%)	2 (2=21-40%)	4 (4=61-80%)	2 (2=21-40%)
FC(F)CCCn1nc(Cl)c2cccc(Oc3ncc(Cl)cn3)c21 [Compound 1.040]	2 (2=21-40%)	4 (4=61-80%)	5 (5=81-100%)	5 (5=81-100%)	4 (4=61-80%)	5 (5=81-100%)	5 (5=81-100%)	5 (5=81-100%)	5 (5=81-100%)	4 (4=61-80%)
CC(C)=CCCn1nc(Cl)c2cccc(Oc3ncc(Cl)cn3)c21 [Compound 1.066]	1 (1=0-20%)	4 (4=61-80%)	3 (3=41-60%)	4 (4=61-80%)	2 (2=21-40%)	5 (5=81-100%)	3 (3=41-60%)	2 (2=21-40%)	4 (4=61-80%)	3 (3=41-60%)
N#Cc1cc(Cl)cnc1Oc1cccc2cnn(CCCC(F)(F)F)c12 [Compound 1.014]	1 (1=0-20%)	4 (4=61-80%)	4 (4=61-80%)	4 (4=61-80%)	1 (1=0-20%)	4 (4=61-80%)	2 (2=21-40%)	2 (2=21-40%)	4 (4=61-80%)	3 (3=41-60%)
COc1cc(Oc2cccc3cnn(CCCC(F)(F)F)c23)ncn1 [Compound 1.012]	1 (1=0-20%)	1 (1=0-20%)	2 (2=21-40%)	1 (1=0-20%)	1 (1=0-20%)	1 (1=0-20%)	1 (1=0-20%)	1 (1=0-20%)	1 (1=0-20%)	1 (1=0-20%)
FC(F)(F)CCn1nc(Cl)c2cccc(Oc3ncc(Cl)cn3)c21 [Compound 1.035]	3 (3=41-60%)	5 (5=81-100%)	4 (4=61-80%)	5 (5=81-100%)	3 (3=41-60%)	5 (5=81-100%)	5 (5=81-100%)	4 (4=61-80%)	5 (5=81-100%)	4 (4=61-80%)
C=C(C)Cn1nc(Cl)c2cccc(Oc3ncc(Cl)cn3)c21 [Compound 1.064]	1 (1=0-20%)	2 (2=21-40%)	1 (1=0-20%)	1 (1=0-20%)	1 (1=0-20%)	1 (1=0-20%)	1 (1=0-20%)	1 (1=0-20%)	2 (2=21-40%)	1 (1=0-20%)
